# Assay results published in PubChem BioAssay (NCI).
#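 How tested: cells in 96-well plates exposed to compound for 48 hours at five concentrations. The concentration for 50% growth inhibition is given as GI50. TGI: concentration producing complete growth inhibition.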
# Tests used:
# Assay in all cases: NCI tumour cell line growth inhibition, 48 h
# 786-0 renal = test system: 786-0 renal
# A498 renal = test system: A498 renal
# A549 NSCLC = test system: A549 NSCLC
# ACHN renal = test system: ACHN renal
# BT-549 breast = test system: BT-549 breast
# CAKI-1 renal = test system: CAKI-1 renal
# CCRF-CEM leukemia = test system: CCRF-CEM leukemia
# COLO 205 colon = test system: COLO 205 colon
# DU-145 prostate = test system: DU-145 prostate
# EKVX NSCLC = test system: EKVX NSCLC
# HCC-2998 colon = test system: HCC-2998 colon
# HCT-116 colon = test system: HCT-116 colon
# HCT-15 colon = test system: HCT-15 colon
# HL-60(TB) leukemia = test system: HL-60(TB) leukemia
# HOP-62 NSCLC = test system: HOP-62 NSCLC
# HOP-92 NSCLC = test system: HOP-92 NSCLC
# HS 578T breast = test system: HS 578T breast
# HT29 colon = test system: HT29 colon
# IGROV1 ovarian = test system: IGROV1 ovarian
# K-562 leukemia = test system: K-562 leukemia
# KM12 colon = test system: KM12 colon
# LOX IMVI melanoma = test system: LOX IMVI melanoma
# M14 melanoma = test system: M14 melanoma
# MALME-3M melanoma = test system: MALME-3M melanoma
# MCF7 breast = test system: MCF7 breast
# MDA-MB-231 breast = test system: MDA-MB-231 breast
# MDA-MB-435 = test system: MDA-MB-435
# MDA-MB-468 breast = test system: MDA-MB-468 breast
# MOLT-4 leukemia = test system: MOLT-4 leukemia
# NCI-H226 lung = test system: NCI-H226 lung
# NCI-H23 lung = test system: NCI-H23 lung
# NCI-H460 lung = test system: NCI-H460 lung
# NCI-H522 lung = test system: NCI-H522 lung
# OVCAR-3 ovarian = test system: OVCAR-3 ovarian
# OVCAR-4 ovarian = test system: OVCAR-4 ovarian
# OVCAR-5 ovarian = test system: OVCAR-5 ovarian
# OVCAR-8 ovarian = test system: OVCAR-8 ovarian
# PC-3 prostate = test system: PC-3 prostate
# RPMI-8226 leukemia = test system: RPMI-8226 leukemia
# RXF 393 renal = test system: RXF 393 renal
# SF-268 CNS = test system: SF-268 CNS
# SF-295 CNS = test system: SF-295 CNS
# SF-539 CNS = test system: SF-539 CNS
# SK-MEL-2 melanoma = test system: SK-MEL-2 melanoma
# SK-MEL-28 melanoma = test system: SK-MEL-28 melanoma
# SK-MEL-5 melanoma = test system: SK-MEL-5 melanoma
# SK-OV-3 ovarian = test system: SK-OV-3 ovarian
# SN12C renal = test system: SN12C renal
# SNB-19 CNS = test system: SNB-19 CNS
# SR leukemia = test system: SR leukemia
# SW-620 colon = test system: SW-620 colon
# T-47D breast = test system: T-47D breast
# TK-10 renal = test system: TK-10 renal
# U251 CNS = test system: U251 CNS
# UACC-257 melanoma = test system: UACC-257 melanoma
# UACC-62 melanoma = test system: UACC-62 melanoma
# UO-31 renal = test system: UO-31 renal
smiles,measurement,setting,value
CN(C)c1nc(NCCNS(=O)(=O)c2ccc(C(=O)/C=C/c3ccc(C(F)(F)F)cc3)cc2)nc(N2CCOCC2)n1,GI50,786-0 renal,14.5 µM
same,TGI,786-0 renal,28.2 µM
same,GI50,A498 renal,13.3 µM
same,TGI,A498 renal,26.6 µM
same,GI50,A549 NSCLC,13.8 µM
same,TGI,A549 NSCLC,29.3 µM
same,GI50,ACHN renal,8.6 µM
same,TGI,ACHN renal,20.7 µM
same,GI50,BT-549 breast,15.6 µM
same,TGI,BT-549 breast,29.3 µM
same,GI50,CAKI-1 renal,11.4 µM
same,TGI,CAKI-1 renal,24.3 µM
same,GI50,CCRF-CEM leukemia,3.2 µM
same,TGI,CCRF-CEM leukemia,> 100 µM
same,GI50,COLO 205 colon,15 µM
same,TGI,COLO 205 colon,32.4 µM
same,GI50,DU-145 prostate,15.4 µM
same,TGI,DU-145 prostate,28.9 µM
same,GI50,EKVX NSCLC,14.3 µM
same,TGI,EKVX NSCLC,27.4 µM
same,GI50,HCC-2998 colon,12.9 µM
same,TGI,HCC-2998 colon,26 µM
same,GI50,HCT-116 colon,3.19 µM
same,TGI,HCT-116 colon,10 µM
same,GI50,HCT-15 colon,1.86 µM
same,TGI,HCT-15 colon,3.62 µM
same,GI50,HL-60(TB) leukemia,5.12 µM
same,TGI,HL-60(TB) leukemia,86.3 µM
same,GI50,HOP-62 NSCLC,17 µM
same,TGI,HOP-62 NSCLC,32.3 µM
same,GI50,HOP-92 NSCLC,15.2 µM
same,TGI,HOP-92 NSCLC,31.5 µM
same,GI50,HS 578T breast,17.8 µM
same,TGI,HS 578T breast,64.4 µM
same,GI50,HT29 colon,2.06 µM
same,TGI,HT29 colon,4.51 µM
same,GI50,IGROV1 ovarian,1.77 µM
same,TGI,IGROV1 ovarian,3.51 µM
same,GI50,K-562 leukemia,3.21 µM
same,TGI,K-562 leukemia,> 100 µM
same,GI50,KM12 colon,8.95 µM
same,TGI,KM12 colon,25.5 µM
same,GI50,LOX IMVI melanoma,1.68 µM
same,TGI,LOX IMVI melanoma,3.16 µM
same,GI50,M14 melanoma,9.83 µM
same,TGI,M14 melanoma,22.2 µM
same,GI50,MALME-3M melanoma,14.4 µM
same,TGI,MALME-3M melanoma,27.6 µM
same,GI50,MCF7 breast,1.68 µM
same,TGI,MCF7 breast,3.34 µM
same,GI50,MDA-MB-231 breast,11.7 µM
same,TGI,MDA-MB-231 breast,24.2 µM
same,GI50,MDA-MB-435,10.3 µM
same,TGI,MDA-MB-435,23 µM
same,GI50,MDA-MB-468 breast,5.11 µM
same,TGI,MDA-MB-468 breast,18.4 µM
same,GI50,MOLT-4 leukemia,3.48 µM
same,TGI,MOLT-4 leukemia,> 100 µM
same,GI50,NCI-H226 lung,16.1 µM
same,TGI,NCI-H226 lung,35.6 µM
same,GI50,NCI-H23 lung,13 µM
same,TGI,NCI-H23 lung,26.2 µM
same,GI50,NCI-H460 lung,16.1 µM
same,TGI,NCI-H460 lung,32.5 µM
same,GI50,NCI-H522 lung,15.2 µM
same,TGI,NCI-H522 lung,29.8 µM
same,GI50,OVCAR-3 ovarian,16.4 µM
same,TGI,OVCAR-3 ovarian,30.6 µM
same,GI50,OVCAR-4 ovarian,14.8 µM
same,TGI,OVCAR-4 ovarian,28.9 µM
same,GI50,OVCAR-5 ovarian,14.5 µM
same,TGI,OVCAR-5 ovarian,27.7 µM
same,GI50,OVCAR-8 ovarian,14.4 µM
same,TGI,OVCAR-8 ovarian,28.1 µM
same,GI50,PC-3 prostate,10.8 µM
same,TGI,PC-3 prostate,25.4 µM
same,GI50,RPMI-8226 leukemia,1.77 µM
same,TGI,RPMI-8226 leukemia,5.72 µM
same,GI50,RXF 393 renal,11.5 µM
same,TGI,RXF 393 renal,23.7 µM
same,GI50,SF-268 CNS,16.3 µM
same,TGI,SF-268 CNS,37.8 µM
same,GI50,SF-295 CNS,8.11 µM
same,TGI,SF-295 CNS,20.6 µM
same,GI50,SF-539 CNS,13 µM
same,TGI,SF-539 CNS,25.7 µM
same,GI50,SK-MEL-2 melanoma,16.3 µM
same,TGI,SK-MEL-2 melanoma,30.4 µM
same,GI50,SK-MEL-28 melanoma,14.4 µM
same,TGI,SK-MEL-28 melanoma,27.5 µM
same,GI50,SK-MEL-5 melanoma,15.8 µM
same,TGI,SK-MEL-5 melanoma,29.5 µM
same,GI50,SK-OV-3 ovarian,14.7 µM
same,TGI,SK-OV-3 ovarian,29.5 µM
same,GI50,SN12C renal,12.5 µM
same,TGI,SN12C renal,25 µM
same,GI50,SNB-19 CNS,13.5 µM
same,TGI,SNB-19 CNS,26.4 µM
same,GI50,SR leukemia,6.31 µM
same,TGI,SR leukemia,> 100 µM
same,GI50,SW-620 colon,3.3 µM
same,TGI,SW-620 colon,11.1 µM
same,GI50,T-47D breast,5.5 µM
same,TGI,T-47D breast,27.2 µM
same,GI50,TK-10 renal,15.5 µM
same,TGI,TK-10 renal,29.5 µM
same,GI50,U251 CNS,2.95 µM
same,TGI,U251 CNS,11 µM
same,GI50,UACC-257 melanoma,15.3 µM
same,TGI,UACC-257 melanoma,29.4 µM
same,GI50,UACC-62 melanoma,11.2 µM
same,TGI,UACC-62 melanoma,23.3 µM
same,GI50,UO-31 renal,11.9 µM
same,TGI,UO-31 renal,24.2 µM
